Measured values: PubChem BioAssay (NCI)
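Method: 48-hour compound exposure of cells in 96-well plates, five concentrations, linear interpolation of endpoints. GI50 = concentration required for 50% inhibition of growth. TGI denotes the concentration required for complete inhibition of growth.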

Tests used:
Assay in all cases: NCI tumour cell line growth inhibition, 48 h
786-0 renal = test system: 786-0 renal
A498 renal = test system: A498 renal
A549 NSCLC = test system: A549 NSCLC
ACHN renal = test system: ACHN renal
BT-549 breast = test system: BT-549 breast
CAKI-1 renal = test system: CAKI-1 renal
CCRF-CEM leukemia = test system: CCRF-CEM leukemia
COLO 205 colon = test system: COLO 205 colon
DU-145 prostate = test system: DU-145 prostate
EKVX NSCLC = test system: EKVX NSCLC
HCC-2998 colon = test system: HCC-2998 colon
HCT-116 colon = test system: HCT-116 colon
HCT-15 colon = test system: HCT-15 colon
HL-60(TB) leukemia = test system: HL-60(TB) leukemia
HOP-62 NSCLC = test system: HOP-62 NSCLC
HOP-92 NSCLC = test system: HOP-92 NSCLC
HS 578T breast = test system: HS 578T breast
HT29 colon = test system: HT29 colon
IGROV1 ovarian = test system: IGROV1 ovarian
K-562 leukemia = test system: K-562 leukemia
KM12 colon = test system: KM12 colon
LOX IMVI melanoma = test system: LOX IMVI melanoma
M14 melanoma = test system: M14 melanoma
MALME-3M melanoma = test system: MALME-3M melanoma
MCF7 breast = test system: MCF7 breast
MDA-MB-435 = test system: MDA-MB-435
MDA-MB-468 breast = test system: MDA-MB-468 breast
MOLT-4 leukemia = test system: MOLT-4 leukemia
NCI-H226 lung = test system: NCI-H226 lung
NCI-H23 lung = test system: NCI-H23 lung
NCI-H460 lung = test system: NCI-H460 lung
NCI-H522 lung = test system: NCI-H522 lung
NCI/ADR-RES ovarian = test system: NCI/ADR-RES ovarian
OVCAR-3 ovarian = test system: OVCAR-3 ovarian
OVCAR-4 ovarian = test system: OVCAR-4 ovarian
OVCAR-5 ovarian = test system: OVCAR-5 ovarian
OVCAR-8 ovarian = test system: OVCAR-8 ovarian
PC-3 prostate = test system: PC-3 prostate
RPMI-8226 leukemia = test system: RPMI-8226 leukemia
RXF 393 renal = test system: RXF 393 renal
SF-268 CNS = test system: SF-268 CNS
SF-295 CNS = test system: SF-295 CNS
SF-539 CNS = test system: SF-539 CNS
SK-MEL-28 melanoma = test system: SK-MEL-28 melanoma
SK-MEL-5 melanoma = test system: SK-MEL-5 melanoma
SK-OV-3 ovarian = test system: SK-OV-3 ovarian
SN12C renal = test system: SN12C renal
SNB-19 CNS = test system: SNB-19 CNS
SR leukemia = test system: SR leukemia
SW-620 colon = test system: SW-620 colon
T-47D breast = test system: T-47D breast
TK-10 renal = test system: TK-10 renal
U251 CNS = test system: U251 CNS
UACC-257 melanoma = test system: UACC-257 melanoma
UACC-62 melanoma = test system: UACC-62 melanoma

Structure (SMILES): O=C(Nc1nc2ccc([N+](=O)[O-])cc2s1)Nc1ccccc1I
- GI50 (786-0 renal): 3.61 µM
- TGI (786-0 renal): 32.1 µM
- GI50 (A498 renal): 2570 nM
- TGI (A498 renal): 8.12 µM
- GI50 (A549 NSCLC): 3.81 µM
- TGI (A549 NSCLC): 19.2 µM
- GI50 (ACHN renal): 3.58 µM
- TGI (ACHN renal): 15.6 µM
- GI50 (BT-549 breast): 2860 nM
- TGI (BT-549 breast): 10.5 µM
- GI50 (CAKI-1 renal): 3.46 µM
- TGI (CAKI-1 renal): > 100 µM
- GI50 (CCRF-CEM leukemia): 3.57 µM
- TGI (CCRF-CEM leukemia): 52 µM
- GI50 (COLO 205 colon): 4.89 µM
- TGI (COLO 205 colon): 20 µM
- GI50 (DU-145 prostate): 4.25 µM
- TGI (DU-145 prostate): > 100 µM
- GI50 (EKVX NSCLC): 3.05 µM
- TGI (EKVX NSCLC): 12.3 µM
- GI50 (HCC-2998 colon): 4.12 µM
- TGI (HCC-2998 colon): 23.4 µM
- GI50 (HCT-116 colon): 3.46 µM
- TGI (HCT-116 colon): 12.6 µM
- GI50 (HCT-15 colon): 3.4 µM
- TGI (HCT-15 colon): 14.6 µM
- GI50 (HL-60(TB) leukemia): 2150 nM
- TGI (HL-60(TB) leukemia): 7.92 µM
- GI50 (HOP-62 NSCLC): 6.16 µM
- TGI (HOP-62 NSCLC): 21.4 µM
- GI50 (HOP-92 NSCLC): 2300 nM
- TGI (HOP-92 NSCLC): 6.95 µM
- GI50 (HS 578T breast): 3.23 µM
- TGI (HS 578T breast): > 100 µM
- GI50 (HT29 colon): 5.76 µM
- TGI (HT29 colon): 20 µM
- GI50 (IGROV1 ovarian): 3.97 µM
- TGI (IGROV1 ovarian): > 100 µM
- GI50 (K-562 leukemia): 3.23 µM
- TGI (K-562 leukemia): 13.9 µM
- GI50 (KM12 colon): 3.82 µM
- TGI (KM12 colon): > 100 µM
- GI50 (LOX IMVI melanoma): 3.67 µM
- TGI (LOX IMVI melanoma): 15.1 µM
- GI50 (M14 melanoma): 4.28 µM
- TGI (M14 melanoma): 89.8 µM
- GI50 (MALME-3M melanoma): 2370 nM
- TGI (MALME-3M melanoma): 8.4 µM
- GI50 (MCF7 breast): 2910 nM
- TGI (MCF7 breast): 11 µM
- GI50 (MDA-MB-435): 3.78 µM
- TGI (MDA-MB-435): > 100 µM
- GI50 (MDA-MB-468 breast): 2410 nM
- TGI (MDA-MB-468 breast): 7.79 µM
- GI50 (MOLT-4 leukemia): 2920 nM
- TGI (MOLT-4 leukemia): 8.41 µM
- GI50 (NCI-H226 lung): 3.77 µM
- TGI (NCI-H226 lung): 19.4 µM
- GI50 (NCI-H23 lung): 2760 nM
- TGI (NCI-H23 lung): 8.15 µM
- GI50 (NCI-H460 lung): 3.55 µM
- TGI (NCI-H460 lung): 16.4 µM
- GI50 (NCI-H522 lung): 2730 nM
- TGI (NCI-H522 lung): 9.1 µM
- GI50 (NCI/ADR-RES ovarian): 3.12 µM
- TGI (NCI/ADR-RES ovarian): 11.8 µM
- GI50 (OVCAR-3 ovarian): 3.11 µM
- TGI (OVCAR-3 ovarian): 10.7 µM
- GI50 (OVCAR-4 ovarian): 3.94 µM
- TGI (OVCAR-4 ovarian): > 100 µM
- GI50 (OVCAR-5 ovarian): 9.78 µM
- TGI (OVCAR-5 ovarian): 86.6 µM
- GI50 (OVCAR-8 ovarian): 4.58 µM
- TGI (OVCAR-8 ovarian): 20.6 µM
- GI50 (PC-3 prostate): 3.43 µM
- TGI (PC-3 prostate): 84.2 µM
- GI50 (RPMI-8226 leukemia): 2080 nM
- TGI (RPMI-8226 leukemia): 5.74 µM
- GI50 (RXF 393 renal): 4.18 µM
- TGI (RXF 393 renal): 24.2 µM
- GI50 (SF-268 CNS): 3.78 µM
- TGI (SF-268 CNS): > 100 µM
- GI50 (SF-295 CNS): 3.34 µM
- TGI (SF-295 CNS): 14.8 µM
- GI50 (SF-539 CNS): 3.45 µM
- TGI (SF-539 CNS): 12.9 µM
- GI50 (SK-MEL-28 melanoma): 3.4 µM
- TGI (SK-MEL-28 melanoma): 39 µM
- GI50 (SK-MEL-5 melanoma): 1860 nM
- TGI (SK-MEL-5 melanoma): 3.86 µM
- GI50 (SK-OV-3 ovarian): 2670 nM
- TGI (SK-OV-3 ovarian): 9.38 µM
- GI50 (SN12C renal): 3.1 µM
- TGI (SN12C renal): 12.2 µM
- GI50 (SNB-19 CNS): 3.32 µM
- TGI (SNB-19 CNS): 19 µM
- GI50 (SR leukemia): 2060 nM
- TGI (SR leukemia): 5.03 µM
- GI50 (SW-620 colon): 4.35 µM
- TGI (SW-620 colon): 31.7 µM
- GI50 (T-47D breast): 2570 nM
- TGI (T-47D breast): 8.98 µM
- GI50 (TK-10 renal): 3.43 µM
- TGI (TK-10 renal): 24.3 µM
- GI50 (U251 CNS): 3.3 µM
- TGI (U251 CNS): 12.7 µM
- GI50 (UACC-257 melanoma): 3.17 µM
- TGI (UACC-257 melanoma): 16 µM
- GI50 (UACC-62 melanoma): 3.31 µM
- TGI (UACC-62 melanoma): 37.1 µM
